Columns and labels:
[1] = system: guanylate cyclase; test: Guanylate cyclase activation in crude broken-cell preparation of ciliary process; type: biochemical, rabbit; conditions: low concentrations
Protocol: Generally, the broken cell preparations are prepared according to the method described in a paper by Nathanson et al., (Molecular Pharmacology 20:68 (1981), which is herein incorporated by reference. Choroid epithelial cells are prepared as described in Example 1. To measure activity of atriopeptins, analogues, or agonists thereof, washed particulate cell preparations are prepared by using the pellet obtained following high speed centrifugation. To measure direct activators of guanylate cyclase, the crude broken-cell preparation without centrifugation is used. Guanylate cyclase activity is measured in appropriate buffer-containing GTP, cofactors, tissue fraction, and the compound to be tested. […] Cyclic GMP can be measured by any test which indicates the presence thereof, typically by the radioimmunoassay as described in Example 6. […] Ka^B, where B is the test compound, is compared with the constant (Ka^ANF) determined in an analogous way using rat atrial natriuretic factor (rANF) as a standard. […]
The effect of rANP on membrane-bound guanylate cyclase and adenylate cyclase activity in various brain-barrier tissues and tissue fractions from rabbit was compared with its activity in cerebrum and cerebellum. Guanylate cyclase was measured as the rate of cyclic GMP formation by modifications of the technique of Waldman et al., supra, incorporated herein by reference. […]

[2] = system: volunteer human; test: Eye drop in a volunteer human: IOP, blood pressure and pulse; type: in vivo; conditions: 50µl of 0.1% aqueous solution in one eye
Protocol: The effect of administration of a nitroglycerine eye drop preparation (50µl of 0.1% aqueous solution in one eye) in a volunteer human is illustrated in Figure 14. IOP was measured by applanation pnumatonometry and blood pressure and pulse were measured by arm cuff.

[3] = system: rabbits; test: Intraocular pressure and ocular observations after topical (eye drop) application; type: in vivo, rabbit
Protocol: The measurement of intraocular pressure (IOP), was performed using procedures similar to those described in Nathanson, Brit. J. Pharmacol., 73:97 (1981) and Nathanson, Current Eye Res., 4:191 (1985). Briefly, male (3-5 kg), New Zealand white rabbits were housed under standard conditions and exposed to a 12 hr light-dark cycle. IOP was measured with a Perkins applanation tonometer after topical anesthesia with 0.4% benoxinate (and 0.25% sodium fluorescein). The tonometer had been calibrated previously by connecting the anterior chamber of enucleated rabbit eyes to a manometer (and reservoir) and taking tonometer readings at different pressures. A number of preliminary IOP readings were made in order to accommodate the animals to the measurement procedure. Readings were then taken just prior to drug or vehicle injection and at 3, 9, 20, 27, 44, 51, 72, and 144 hours post-injection.
A potent PDE inhibitor of the arylxanthine class, 1,3-dibutylxanthine, was applied unilaterally and topically to rabbit eyes in a 0.5% solution. […] The IOP was decreased 4 mm (Hg) in the ipsilateral eye (Figure 8).
Again there was about a 4 mm (Hg) decrease in intraocular pressure. […] This xanthine inhibited the enzyme with an IC₅₀ (concentration necessary for 50% enzyme inhibition) of 25 uM.
(§1) The effect of nitroglycerine eye drops on rabbit intraocular pressure was also measured. The IOP of 8 conscious, male albino rabbits (3-4 kg) was measured by applanation pnumatonometry after topical anesthesia with 0.4% benoxinate. Nitroglycerine in phosphate buffered saline, pH 7.4, was given unilaterally, in two 25µl drops spaced five minutes apart. Blood pressure and pulse rate were measured by a photoelectric detector using an automated external tail cuff. […] By 24 hours, pressure had returned to normal.

[4] = system: rabbits; test: Systemic blood pressure and pulse rate (tail cuff) after eye drops; type: in vivo, rabbit; conditions: 0.03% eye drops
Protocol: as §1

O=[N+]([O-])OCC(CO[N+](=O)[O-])O[N+](=O)[O-] [nitroglycerine, 1,2,3-propanetriol trinitrate]
stimulation of basal guanylate cyclase activity [1]: significant stimulation | effect on IOP [2]: significantly decreased IOP | systemic blood pressure or pulse [2]: without change | decrease in IOP at maximum ([3]; 0.03% (gm/100ml) solution, two 25µl drops, 8 rabbits): 5.2 mm Hg | IOP at six hours ([3]; 0.03% solution): still significantly reduced | time of greatest IOP decrease ([3]; 0.03% solution): greatest at one hour | time until pressure had returned to normal ([3]; 0.03% solution): ≤ 24 h | effect of higher doses on IOP ([3]; 50µl eye drops, doses above 0.03%, Fig. 13): no additional decrease in IOP | effect of lower doses on IOP ([3]; 50µl eye drops, lower doses, Fig. 13): less effective | conjunctival inflammation and pupillary diameter ([3]; all doses): At no dose did conjunctival inflammation nor any change in pupillary diameter occur | contralateral decrease in pressure relative to that seen ipsilaterally ([3]; higher doses): 40-75% | hyperemia of the conjunctival vessels ([3]; higher doses (0.1%)): slight, transient (five minutes) hyperemia | change in pulse rate or in systolic, diastolic or mean blood pressure [4]: no significant change

From patent EP0583821A1, “Atriopeptins, guanylate cyclase activators, and phosphodiesterase inhibitors as treatment for glaucoma, hydrocephalus and cerebral edema (cranial fluid volume dysfunction)” (THE GENERAL HOSPITAL CORPORATION, priority 1987, dated 1988)
